Like-named read-outs stand apart in the source and are kept apart here. Numbered stars: 1 amine (or outer) side, 2 acyl side, 3 side chain; on linkers, the order of the positions; unused ones are H or OH. Square brackets hold non-standard residues; d marks the D form. Side chains are listed from the residue outwards. Peptide text beside a SMILES is read from it. * marks the point of attachment. Biotin = O=C1N[C@H]2[C@H](CS[C@H]2CCCCC(=O)*)N1; C18 diacid = O=C(O)CCCCCCCCCCCCCCCCC(=O)*; γGlu = O=C(O)[C@H](CCC(=O)[*:2])N[*:1]; AEEA = NCCOCCOCC(=O)O; Aib = CC(C)(N)C(=O)O
What was measured:
[1] = In vitro enzymatic stability against FaSSIF/P (pancreatin in FaSSIF, pH 6.5); format: in vitro ADME; settings: simulated gi fluid
human GLP-1R = biological target: T1, human GLP-1R (Homo sapiens, UniProt P43220); assay: cAMP assay (HitHunter cAMP) in GLP-1R-expressing CHO-K1 cells (GLP-1R+ cells); format: cell-based
T1 construct: host or cells: CHO-K1
T1 sequence (P43220 24-463): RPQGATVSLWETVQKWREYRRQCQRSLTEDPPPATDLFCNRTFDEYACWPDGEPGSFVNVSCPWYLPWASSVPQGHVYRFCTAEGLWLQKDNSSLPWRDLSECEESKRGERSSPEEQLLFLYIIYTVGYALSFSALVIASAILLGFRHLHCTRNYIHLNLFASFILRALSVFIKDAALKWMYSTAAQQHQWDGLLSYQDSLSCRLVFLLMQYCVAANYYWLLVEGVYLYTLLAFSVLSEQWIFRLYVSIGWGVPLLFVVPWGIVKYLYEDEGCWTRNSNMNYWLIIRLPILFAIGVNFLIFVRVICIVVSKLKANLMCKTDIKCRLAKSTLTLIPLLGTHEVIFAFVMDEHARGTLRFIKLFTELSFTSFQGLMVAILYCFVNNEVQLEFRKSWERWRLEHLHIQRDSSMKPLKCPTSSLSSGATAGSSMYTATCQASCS
In short: (§1)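 Luminescent cAMP read-out: after 30 min peptide stimulation at 37 °C in cAMP assay buffer, receptor-expressing CHO-K1 cells (seeded 7×10^3/well the night before) received antibody and detection reagents for 1 h, then Solution A for 3 h, at room temperature in the dark.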

human GIPR = biological target: T2, human GIPR (Homo sapiens, UniProt P48546); assay: cAMP assay (HitHunter cAMP) in GIPR-expressing CHO-K1 cells (GIPR+ cells); format: cell-based
T2 construct: host or cells: CHO-K1
T2 sequence (P48546 22-466): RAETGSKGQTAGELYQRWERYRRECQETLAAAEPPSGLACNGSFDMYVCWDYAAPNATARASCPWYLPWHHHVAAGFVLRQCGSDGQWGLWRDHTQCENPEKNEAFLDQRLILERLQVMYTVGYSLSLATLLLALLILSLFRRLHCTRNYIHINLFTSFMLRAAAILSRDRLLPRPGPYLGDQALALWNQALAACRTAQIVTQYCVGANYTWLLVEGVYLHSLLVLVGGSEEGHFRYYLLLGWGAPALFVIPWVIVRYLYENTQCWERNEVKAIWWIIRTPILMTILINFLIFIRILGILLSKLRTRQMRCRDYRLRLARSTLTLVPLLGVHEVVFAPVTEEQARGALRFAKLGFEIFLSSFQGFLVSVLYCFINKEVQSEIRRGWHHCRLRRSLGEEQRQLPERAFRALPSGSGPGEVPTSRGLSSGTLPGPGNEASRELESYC
In short: as §1

human GCGR = biological target: T3, human GCGR (Homo sapiens, UniProt P47871); assay: cAMP assay (HitHunter cAMP) in GCGR-expressing CHO-K1 cells (GCGR+ cells); format: cell-based
T3 construct: host or cells: CHO-K1
T3 sequence (P47871 26-477): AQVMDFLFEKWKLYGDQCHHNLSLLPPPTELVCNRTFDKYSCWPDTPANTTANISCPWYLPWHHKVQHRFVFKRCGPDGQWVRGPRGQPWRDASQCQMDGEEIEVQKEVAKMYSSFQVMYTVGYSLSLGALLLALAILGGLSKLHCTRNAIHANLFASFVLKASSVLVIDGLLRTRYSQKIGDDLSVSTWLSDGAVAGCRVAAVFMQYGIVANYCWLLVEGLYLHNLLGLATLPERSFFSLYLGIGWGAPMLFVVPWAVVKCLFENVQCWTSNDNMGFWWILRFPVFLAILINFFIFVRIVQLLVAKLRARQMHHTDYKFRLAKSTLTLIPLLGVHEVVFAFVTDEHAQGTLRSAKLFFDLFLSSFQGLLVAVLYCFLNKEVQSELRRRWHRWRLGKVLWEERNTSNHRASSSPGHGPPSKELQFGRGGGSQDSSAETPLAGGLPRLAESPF
In short: as §1

[2] = format: in vitro ADME; settings: pH 7.8
Procedure: (§2) For the stability against trypsin, the test samples were prepared by mixing stock solutions of peptide and trypsin dissolved in 50 mM PBS (pH 7.8) containing 0.02% PS80 in a weight ratio of 10:1. The test samples were incubated at 37° C. for 180 min. The sampling from test samples was proceeded at the predetermined time points (10, 30, 60, 90, 120, and 180 min) and stopped by 10% TFA solution.
(§3) Analytical HPLC was performed to determine the remaining amount on an ACQUITY Premier system (Waters, USA) with an ACQUITY CSH C18 column (Waters, USA) at 35° C. using 0.1% TFA in water and acetonitrile. The remaining amount was determined as a percentage of the peak area at the sampling time point relative to the peak area of the initial sample.

trypsin = format: in vitro ADME
Procedure: as §2, §3

FaSSIF/P = assay: In vitro enzymatic stability against FaSSIF/P (pancreatin in FaSSIF, pH 6.5); format: in vitro ADME
[3] = Intestinal absorption / PK after intraduodenal administration of oral formulation in rats, serum LC-MS/MS; settings: rat, in vivo
[4] = In vivo efficacy in mAMLN (obese and NASH) mice, 4 weeks; settings: after 4 weeks
[5] = Body weight loss in high fat diet (HFD) mice, 2 weeks; format: in vivo; settings: 20 nmol/kg s.c. Q2D
Procedure: This study was conducted to confirm the body weight loss effect and select the peptides to be evaluated in high fat diet (HFD) treated mouse, which is widely used as experimental animal model in obesity and diabetes studies. SEQ ID NOs. The peptides were delivered at 0.02% PS80 in PBS and dosing volume was 10 mL/kg. Body weight changes, blood glucose, and food intake were monitored Q2D. Animals were fasted at least 4 hours prior to blood glucose measurement.

For `CSCC[C@H](NC(=O)[C@H](Cc1ccc(O)cc1)NC(=O)[C@H](CC(=O)O)NC(=O)[C@H](CC(C)C)NC(=O)[C@H](CC(C)C)NC(=O)[C@H](CCCCNC(=O)COCCOCCNC(=O)COCCOCCNC(=O)CC[C@H](NC(=O)CCCCCCCCCCCCCCCCC(=O)O)C(=O)O)NC(=O)[C@H](CO)NC(=O)[C@H](Cc1ccc(O)cc1)NC(=O)[C@H](CC(=O)O)NC(=O)[C@H](CO)NC(=O)[C@@H](NC(=O)[C@H](Cc1ccccc1)NC(=O)[C@@H](NC(=O)CNC(=O)[C@H](CCC(N)=O)NC(=O)C(C)(C)NC(=O)[C@@H](N)Cc1ccc(O)cc1)[C@@H](C)O)[C@@H](C)O)C(=O)N[C@@H](CCSC)C(=O)N[C@@H](CCC(N)=O)C(=O)N[C@@H](Cc1c[nH]cn1)C(=O)N[C@@H](CC(=O)O)C(=O)N[C@@H](Cc1ccccc1)C(=O)N[C@H](C(=O)N[C@@H](CCC(N)=O)C(=O)N[C@@H](Cc1c[nH]c2ccccc12)C(=O)N[C@@H](CC(C)C)C(=O)N[C@@H](CC(C)C)C(=O)N[C@@H](CCC(=O)O)C(=O)NCC(=O)NCC(=O)N1CCC[C@H]1C(=O)N[C@@H](CO)C(=O)N[C@@H](CO)C(=O)NCC(=O)N[C@@H](C)C(=O)N1CCC[C@H]1C(=O)N1CCC[C@H]1C(=O)N1CCC[C@H]1C(=O)N[C@@H](CO)C(N)=O)C(C)C` [compound 99] (H-Y[Aib]QGTFTSDYSK([AEEA-AEEA-γGlu-C18 diacid])LLDYMMQHDFVQWLLEGGPSSGAPPPS-NH2; N-terminus assumed), the half-life ([1]; pH 6.5, Half-life (min), FaSSIF/P) was 37.9 min, the “activity on GLP-1R compared to SEQ ID NO. 77, in words” value (human GLP-1R; Example 13) was “slightly decreased” and the “Ratio vs. GLP-1R, GLP-1R” value (human GLP-1R; Table 36) was 100. For the same compound, the “Relative % to native ligand, GLP-1R” value (human GLP-1R; Table 36) was 35%, the “Ratio vs. GLP-1R, GIPR” value (human GIPR; Table 36) was 3237 and the “Relative % to native ligand, GIPR” value (human GIPR; Table 36) was 1132%. The “Ratio vs. GLP-1R, GCGR” value (human GCGR; Table 36) was 80, the “Relative % to native ligand, GCGR” value (human GCGR; Table 36) was 28% and the half-life [2] was greater than 434 min. For the same compound, the “stability against trypsin compared with SEQ ID NO. 77, in words” value (trypsin) was “increased half-lives”.
With `CSCC[C@H](NC(=O)[C@H](Cc1ccc(O)cc1)NC(=O)[C@H](CC(=O)O)NC(=O)[C@H](CC(C)C)NC(=O)[C@H](CC(C)C)NC(=O)[C@H](CCCCNC(=O)COCCOCCNC(=O)COCCOCCNC(=O)CC[C@H](NC(=O)CCCCCCCCCCCCCCCCC(=O)O)C(=O)O)NC(=O)[C@H](CO)NC(=O)[C@H](Cc1ccc(O)cc1)NC(=O)[C@H](CC(=O)O)NC(=O)[C@H](CO)NC(=O)[C@@H](NC(=O)[C@H](Cc1ccccc1)NC(=O)[C@@H](NC(=O)CNC(=O)[C@H](CCC(N)=O)NC(=O)C(C)(C)NC(=O)[C@@H](N)Cc1ccc(O)cc1)[C@@H](C)O)[C@@H](C)O)C(=O)N[C@@H](CCSC)C(=O)N[C@@H](CCC(N)=O)C(=O)N[C@@H](CCCNC(=N)N)C(=O)N[C@@H](CC(=O)O)C(=O)N[C@@H](Cc1ccccc1)C(=O)N[C@H](C(=O)N[C@@H](CCCCNC(=O)CCCC[C@@H]1SC[C@@H]2NC(=O)N[C@@H]21)C(=O)N[C@@H](Cc1c[nH]c2ccccc12)C(=O)N[C@@H](CC(C)C)C(=O)N[C@@H](CC(C)C)C(=O)N[C@@H](CCC(=O)O)C(=O)NCC(=O)NCC(=O)N1CCC[C@H]1C(=O)N[C@@H](CO)C(=O)N[C@@H](CO)C(=O)NCC(=O)N[C@@H](C)C(=O)N1CCC[C@H]1C(=O)N1CCC[C@H]1C(=O)N1CCC[C@H]1C(=O)N[C@@H](CO)C(N)=O)C(C)C` [compound 89] (H-Y[Aib]QGTFTSDYSK([AEEA-AEEA-γGlu-C18 diacid])LLDYMMQRDFVK(Biotin)WLLEGGPSSGAPPPS-NH2; N-terminus and C-terminus assumed) the half-life ([1]; pH 6.5, Table 33, peptide:pancreatin weight ratio 25:1, FaSSIF pH 6.5, 37° C., read-out: Half-life) was 43 min, the “intestinal stability in FaSSIF/P compared with SEQ ID NO. 77, in words” value (FaSSIF/P; Example 11) was “not inferior to that of SEQ ID No. 77” and the “Ratio vs. GLP-1R, GLP-1R” value (human GLP-1R; Table 31) was 100. For the same compound, the “Relative % to native ligand, GLP-1R” value (human GLP-1R; Table 31) was 38%, the “Ratio vs. GLP-1R, GIPR” value (human GIPR; Table 31) was 399 and the “Relative % to native ligand, GIPR” value (human GIPR; Table 31) was 154%. The “Ratio vs. GLP-1R, GCGR” value (human GCGR; Table 31) was 117, the “Relative % to native ligand, GCGR” value (human GCGR; Table 31) was 45% and the AUC(0-inf) ([3]; rats, single intraduodenal (ID) administration, read-out: AUCinf) was 2790 ng·h/mL. For the same compound, the Cmax ([3]; rats, single intraduodenal (ID) administration, read-out: mean Cmax) was 332 ng/mL, the half-life ([3]; rats, single intraduodenal (ID) administration, read-out: t1/2 (converted)) was 434 min and the “hepatic steatosis (histological score), in words” value [4] was “significantly reduced”. The “body weight loss effect compared to SEQ ID NO. 77, in words” value [5] was “comparable to SEQ ID NO. 77”.
For `CSCC[C@H](NC(=O)[C@H](Cc1ccc(O)cc1)NC(=O)[C@H](CC(=O)O)NC(=O)[C@H](CC(C)C)NC(=O)[C@H](CC(C)C)NC(=O)[C@H](CCCCNC(=O)COCCOCCNC(=O)COCCOCCNC(=O)CC[C@H](NC(=O)CCCCCCCCCCCCCCCCC(=O)O)C(=O)O)NC(=O)[C@H](CO)NC(=O)[C@H](Cc1ccc(O)cc1)NC(=O)[C@H](CC(=O)O)NC(=O)[C@H](CO)NC(=O)[C@@H](NC(=O)[C@H](Cc1ccccc1)NC(=O)[C@@H](NC(=O)CNC(=O)[C@H](CCC(N)=O)NC(=O)C(C)(C)NC(=O)[C@@H](N)Cc1ccc(O)cc1)[C@@H](C)O)[C@@H](C)O)C(=O)N[C@@H](CCSC)C(=O)N[C@@H](CCC(N)=O)C(=O)N[C@@H](CCCNC(=N)N)C(=O)N[C@@H](CC(=O)O)C(=O)N[C@@H](Cc1ccccc1)C(=O)N[C@H](C(=O)N[C@@H](CCC(N)=O)C(=O)N[C@@H](Cc1c[nH]c2ccccc12)C(=O)N[C@@H](CC(C)C)C(=O)N[C@@H](CC(C)C)C(=O)N[C@@H](CCC(=O)O)C(=O)NCC(=O)NCC(=O)N1CCC[C@H]1C(=O)N[C@@H](CO)C(=O)N[C@@H](CO)C(=O)NCC(=O)N[C@@H](C)C(=O)N1CCC[C@H]1C(=O)N1CCC[C@H]1C(=O)N1CCC[C@H]1C(=O)N[C@@H](CO)C(=O)N[C@@H](CCCCNC(=O)CCCC[C@@H]1SC[C@@H]2NC(=O)N[C@@H]21)C(N)=O)C(C)C` [compound 90] (H-Y[Aib]QGTFTSDYSK([AEEA-AEEA-γGlu-C18 diacid])LLDYMMQRDFVQWLLEGGPSSGAPPPSK(Biotin)-NH2; N-terminus and C-terminus assumed), the half-life ([1]; pH 6.5, Half-life (min)) was 42.1 min, the “intestinal stability in FaSSIF/P compared with SEQ ID NO. 77, in words” value (FaSSIF/P) was “not inferior to that of SEQ ID No. 77” and the “Ratio vs. GLP-1R, GLP-1R” value (human GLP-1R; Table 31) was 100. The “Relative % to native ligand, GLP-1R” value (human GLP-1R; Table 31) was 50%, the “Ratio vs. GLP-1R, GIPR” value (human GIPR; Table 31) was 311 and the “Relative % to native ligand, GIPR” value (human GIPR; Table 31) was 154%. For the same compound, the “Ratio vs. GLP-1R, GCGR” value (human GCGR; Table 31) was 39, the “Relative % to native ligand, GCGR” value (human GCGR; Table 31) was 19% and the AUC(0-inf) [3] was 2490 ng·h/mL. For the same compound, the Cmax [3] was 282 ng/mL, the half-life [3] was 502 min and the “time at which Cmax was reached” value [3] was 0.30 h. For the same compound, the “body weight loss effect compared to SEQ ID NO. 77, in words” value [5] was “comparable to SEQ ID NO. 77”.

From patent US20250296960A1, “PEPTIDE COMPOSITIONS AND METHODS OF USE THEREOF” (priority 2022, published 2025)
